Source: patent US20020098186A1, “Use of endothelin inhibitors for treatment or prevention of fibrotic disorders” (priority 1999, published 2002)

How the values were obtained:
[1] = system: rat secondary biliary liver fibrosis (BDO); assay: Histological assessment (staging) of liver fibrosis in BDO rats; assay type: in vivo; conditions: Sham (sham operation with LU 80 mg/kg/d 6 weeks)
[2] = Clinical chemical serum parameters in BDO and sham-operated rats; assay type: in vivo, rat; conditions: for ALP / ALT / AST / Bili (total bilirubin) / γGT: serum, mean ± SD
Experimental: Female adult wistar rats, average weight 206±19 g, underwent the following microsurgical procedure under an operating microscope (OPMI 6-2, Zeiss, Germany) (B. Gerling, M. Becker, J. Waldschmidt, D. Schuppan (1996). J. Hepatol. 25:79-84; G. Boigk, L. Stroedter, H. Herbst H, et al. (1997). Hepatology 26:643-639.): 1. midline abdominal incision following anaesthesia with 100 mg/kg ketamine-hydroochloride (Ketanest®, Parke-Davis, Germany) and 10 mg/kg 5,6-dihydro-2-(2,6-xylidino)-4H-1,3-thiazine-hydrochloride (Rompun®, Bayer, Germany); 2. dissection of the common bile duct, insertion of a teflon catheter (Abbocath -T 26 G, venisystems, U.S.A.) and placement of a distal complete and a proximal incomplete ligature with 5-0 silk (Permahand , Ethicon, Germany); 3. retrograde injection of sodium-amidotrizoate (Ethibloc®, Ethicon Germany) at a dose of 0.02 ml/100 g body weight; 4. removal of the catheter, closure of the proximal ligature, scission of the bile duct between the ligatures and wound closure. After bile duct occlusion (BDO), animals received normal chow (Altromin®, Lage, Germany) and were allowed free access to water. […] The following therapeutic groups were formed: 1. BDO and LU at 80 mg/kg/d for 6 weeks (BDO 80/1-6:n=20); 2. BDO and LU at 80 mg/kg/d from week 4-6 of BDO (BDO 80/4-6:n=20); 3. […]
Standard laboratory parameters were measured by our in-hospital clinical chemical department, using an automated analyser (BM/Hitachi 747). The aminoterminal propeptide of procollagen type III (PIIINP) was determined using a sequential saturation radioimmunoassay based on PIINP from rat, a monospecific rabbit antiserum to rat PIIINP and a goat antiserum to rabbit IgG, using a previously described procedure (B. Gerling, M. Becker, J. Waldschmidt, D. Schuppan (1996). J. Hepatol. 25:79-84; G. Boigk, L. Stroedter, H. Herbst H, et al. (1997). Hepatology 26:643-649; d. Schuppan, J. M. Dumont, K. Y. Kim, et al. (1986). J. Hepatol. 3:27-37.). Inter- and intra-assay coefficients of variation were 12% and 5% for a normal and 4% and 3% for a pathological serum sample, resp.

liver collagen = assay: Liver collagen (hydroxyproline) content in BDO rats; assay type: in vivo, rat
Experimental: Female adult wistar rats, average weight 206±19 g, underwent the following microsurgical procedure under an operating microscope (OPMI 6-2, Zeiss, Germany) (B. Gerling, M. Becker, J. Waldschmidt, D. Schuppan (1996). J. Hepatol. 25:79-84; G. Boigk, L. Stroedter, H. Herbst H, et al. (1997). Hepatology 26:643-639.): 1. midline abdominal incision following anaesthesia with 100 mg/kg ketamine-hydroochloride (Ketanest®, Parke-Davis, Germany) and 10 mg/kg 5,6-dihydro-2-(2,6-xylidino)-4H-1,3-thiazine-hydrochloride (Rompun®, Bayer, Germany); 2. dissection of the common bile duct, insertion of a teflon catheter (Abbocath -T 26 G, venisystems, U.S.A.) and placement of a distal complete and a proximal incomplete ligature with 5-0 silk (Permahand , Ethicon, Germany); 3. retrograde injection of sodium-amidotrizoate (Ethibloc®, Ethicon Germany) at a dose of 0.02 ml/100 g body weight; 4. removal of the catheter, closure of the proximal ligature, scission of the bile duct between the ligatures and wound closure. After bile duct occlusion (BDO), animals received normal chow (Altromin®, Lage, Germany) and were allowed free access to water. […] The following therapeutic groups were formed: 1. BDO and LU at 80 mg/kg/d for 6 weeks (BDO 80/1-6:n=20); 2. BDO and LU at 80 mg/kg/d from week 4-6 of BDO (BDO 80/4-6:n=20); 3. BDO and LU at 10 mg/kg/d (sham 80/ 1-6:n=10), rats without medication (control: n=10) and bile duct occluded animals without treatment for 6 weeks (BDO: n=20) served as controls. […]
Hydroxyproline (HYP) was quantified in duplicates from 0.2 g of formalin-fixed liver as described (d. Schuppan, J. M. Dumont, K. Y. Kim, et al (1986). J. Hepatol. 3:27-37; C. Genovese; D. Rowe; B. Kream (1984). Biochemistry 23. 6210-6216.). […] Absorption was read at 558 nm and HYP concentrations were determined from a standard curve with 0 to 1.6 μg HYP (Merck, Germany). The hepatic HYP concentration was calculated using the formula [formula]
and the total liver HYP content calculated by multiplication with the liver weight.

[3] = system: desmin-positive cells (rat hepatic stellate cells); assay: Desmin staining of liver sections (activated hepatic stellate cells); assay type: in vivo; conditions: LU-treated animals (data not shown)
[4] = BDO/LU 80/1-6 (n = 10): BDO, LU 80 mg/kg/d week 1-6
[5] = BDO/LU 80/4-6 (n = 14): BDO, LU 80 mg/kg/d week 4-6
[6] = Sham/LU: sham operation, LU 80 mg/kg/d for 6 weeks, n = 10

With `COc1cc(OC)nc(O[C@H](C(=O)O)C(OC)(c2ccccc2)c2ccccc2)n1` [LU] the “Histological assessment of fibrosis: animals at Stage 0” value [1] was 10, the “Clinical chemical serum parameters (AST, ALT, alkaline phosphatase, gamma glutamyltranspeptidase, total bilirubin, creatinine)” value ([2]; all groups with BDO) was “did not differ between all groups with BDO” and the ALP ([2]; headed BDO/LU 80/1-6 (n = 20)) was 256.1 ± 49.6 U/L. For the same compound, the ALT ([2]; headed BDO/LU 80/1-6 (n = 20)) was 22 ± 8.4 U/L, the AST ([2]; headed BDO/LU 80/1-6 (n = 20)) was 198 ± 56.7 U/L and the “Bili (total bilirubin)” value ([2]; headed BDO/LU 80/1-6 (n = 20)) was 189.5 ± 43.2 µmol/L. For the same compound, the γGT ([2]; headed BDO/LU 80/1-6 (n = 20)) was 15 ± 6.4 U/L, the ALP [2, 4] was 230.7 ± 55.7 U/L and the ALT [2, 4] was 23.6 ± 10.8 U/L. The AST [2, 4] was 160.9 ± 78.5 U/L, the “Bili (total bilirubin)” value [2, 4] was 171.3 ± 49.5 µmol/L and the γGT [2, 4] was 32.7 ± 24.4 U/L. For the same compound, the ALP [2, 5] was 253.1 ± 75.8 U/L, the ALT [2, 5] was 40.2 ± 52 U/L and the AST [2, 5] was 229 ± 78.5 U/L. The “Bili (total bilirubin)” value [2, 5] was 209.9 ± 48.9 µmol/L, the γGT [2, 5] was 28.1 ± 26.4 U/L and the ALP [2, 6] was 85.3 ± 17.9 U/L. The ALT [2, 6] was 21.7 ± 3.3 U/L, the AST [2, 6] was 36.4 ± 7.9 U/L and the “Bili (total bilirubin)” value [2, 6] was 1.6 ± 0.5 µmol/L. For the same compound, the γGT [2, 6] was 0.3 ± 0.5 U/L, the “Reduction of relative liver collagen” value (liver collagen; 10 mg/kg/d over 6 weeks of BDO) was 35% and the “Reduction of hepatic collagen” value (liver collagen; 80 mg LU/kg/d from week 4-6 after BDO, p<0.001) was ~50%. For the same compound, the “Reduction of liver collagen (both as relative and total liver collagen content)” value (liver collagen; 80 mg LU/kg/d over the 6 weeks of BDO, vs untreated BDO, p<0.001) was 50-55% and the “Number of desmin-positive cells in liver sections” value [3] was “significantly reduced”.
